Data reported in publication PMC8834506, “Optimization of Thymidine Kinase-Based Safety Switch for Neural Cell Therapy” (Cells, 2022).
Where two headings read alike, the source gives them in different places.

Experiments:
[1] = system: ReNcells Ki67-SR39h (proliferating); assay: ATP-based assay, EC50 and kinetics of cell death in proliferating neural progenitors; set-up: species or system human; settings: for EC50: Homo sapiens, 96 h GCV exposure
Description: (§1) We then compared the ability of GCV to kill proliferating NPC that expressed the SR39h thymidine kinase under the control of the ubiquitin (ReNcells Ubi-SR39h) or the Ki67 promoter. (ReNcells Ki67-SR39h) (Figure 4). For this purpose, we first performed a dose response to GCV on undifferentiated NPC. […] We then explored the kinetic of cell death with the suicide enzyme driven either by Ki67 or ubiquitin promoter for different concentrations of GCV. The rapidity of cell death induction but not its final extent was a function of the GCV concentrations. […] This was true for a short-term treatment at 24 h and 48 h, but not at the later time points at 72 h and 96 h (Figure 4D).
Figure 4 EC50 and kinetics of GCV-induced cell death in proliferating and post-mitotic ReNcells. SR39h was expressed in ReNcells (immortalized neural precursor cells that can be differentiated to post-mitotic neurons) under the control of the two different promoters: Ki67 or ubiquitin. Wild type ReNcells were used as control. […] (B–D) Kinetics of cell death of SR39-expressing ReNcells cells either under the control of cycle promoter Ki67 or ubiquitin promoter with increasing GCV concentrations of 1, 10, and 100 µM. Cell viability was measured every 24 h using a bioluminescent ATP-based assay (n = 3). (E) ReNcells were differentiated toward post-mitotic neurons for 21 days then treated with GCV for 10 days. Cell viability was measured using an ATP-based assay. Results are mean + SD of three independent experiments performed in triplicates. (F) Immunostaining, Hoechst in blue and Beta III tubulin (βIII tub) in green, ReNcells were differentiated toward neurons for 21 days, then treated with 10 µM of GCV during 10 days. TEXT PRINTED IN THE PICTURE: (A) GCV: ReNcell wt: 1.2 x 10^-5; ReNcell Ki67-SR39h: 2.1 x 10^-9; ReNcell Ki67-SR39h: 2.1 x 10^-9 DOUBTS OF THE COPYIST ABOUT THIS PICTURE: Panel A table: the picture prints no measure or unit for the three values. The only printed substance label is the axis title 'GCV in M', and the table rows are cell lines, so they are written as targets of the values.
Cell culture plate (96 wells plate Corning #3907, Corning, Lonay, Switzerland) were pre-coated with 60 μL per well of Poly-L-ornithine solution (Sigma, Merk, Eysins, Switzerland) at 37 °C for 30 min. […] For EC50 assays, the medium was changed daily for 4 days, then cell viability was assessed using an ATP-based assay. EC50 values for each construct were calculated using a four parameters equation (GraphPad, Prism8, San Diego, CA, USA). […] Luminescence was measured using Spectra L384/L96 (0.2 sec exposure, Molecular devices, Biberach an der Riß, Germany).

[2] = system: ReNcells Ubi-SR39h (proliferating); assay: ATP-based assay, EC50 in proliferating neural progenitors; format: cell-based; settings: Homo sapiens, 96 h GCV exposure
Description: as §1
Figure 4 EC50 and kinetics of GCV-induced cell death in proliferating and post-mitotic ReNcells. […] Cell viability was measured every 24 h using a bioluminescent ATP-based assay (n = 3). […] Cell viability was measured using an ATP-based assay. […]
Cell culture plate (96 wells plate Corning #3907, Corning, Lonay, Switzerland) were pre-coated with 60 μL per well of Poly-L-ornithine solution (Sigma, Merk, Eysins, Switzerland) at 37 °C for 30 min. […] For EC50 assays, the medium was changed daily for 4 days, then cell viability was assessed using an ATP-based assay. EC50 values for each construct were calculated using a four parameters equation (GraphPad, Prism8, San Diego, CA, USA). […]

[3] = system: Ubi-SR39h post-mitotic neurons differentiated from ReNcells; format: cell-based, human
Description: Figure 4 EC50 and kinetics of GCV-induced cell death in proliferating and post-mitotic ReNcells. SR39h was expressed in ReNcells (immortalized neural precursor cells that can be differentiated to post-mitotic neurons) under the control of the two different promoters: Ki67 or ubiquitin. Wild type ReNcells were used as control. […] (B–D) Kinetics of cell death of SR39-expressing ReNcells cells either under the control of cycle promoter Ki67 or ubiquitin promoter with increasing GCV concentrations of 1, 10, and 100 µM. Cell viability was measured every 24 h using a bioluminescent ATP-based assay (n = 3). (E) ReNcells were differentiated toward post-mitotic neurons for 21 days then treated with GCV for 10 days. Cell viability was measured using an ATP-based assay. Results are mean + SD of three independent experiments performed in triplicates. […]
Cell culture plate (96 wells plate Corning #3907, Corning, Lonay, Switzerland) were pre-coated with 60 μL per well of Poly-L-ornithine solution (Sigma, Merk, Eysins, Switzerland) at 37 °C for 30 min. […] For EC50 assays, the medium was changed daily for 4 days, then cell viability was assessed using an ATP-based assay. EC50 values for each construct were calculated using a four parameters equation (GraphPad, Prism8, San Diego, CA, USA). […] Luminescence was measured using Spectra L384/L96 (0.2 sec exposure, Molecular devices, Biberach an der Riß, Germany). […]

[4] = system: host cell DNA; settings: cited from earlier work
[5] = 10 mg/kg/day; cited from earlier work
[6] = undifferentiated NPC, read-out: EC50 of GCV

Nc1nc(O)c2ncn(COC(CO)CO)c2n1 [GCV, ganciclovir]
Cell death induction kinetics, Ki67-SR39h compared to Ubi-SR39h ([1]; 1 μM and 10 μM GCV, measured every 24 h): no significant differences
Cell death induction kinetics, Ki67-SR39h compared to Ubi-SR39h ([1]; 100 μM GCV, at 24 h and 48 h, not at 72 h and 96 h): slightly slower dynamic of cell death
EC50 ([1]; 24-point dose response, n = 3, read-out: EC50 of GCV, ReNcell Ki67-SR39h): 2.1 nM
EC50 [1, 6]: ~2.1 nM
EC50 ([2]; 24-point dose response, n = 3, read-out: EC50 of GCV, ReNcell Ki67-SR39h (second line of the picture's table)): 2.1 nM
EC50 [2, 6]: ~2.1 nM
Cell death in post-mitotic neurons (in words) [3]: killed
GCV concentration from which cell death induction was detected ([3]; human, 10 days): ≥ 10 µM
Fragmentation of host cell DNA [4]: induce fragmentation of host cell DNA
Side effects at the maximal recommended doses [5]: considerable side effects
